Laboratory results as given in patent publication US7666996B2, “Casein derived peptides and uses thereof” (priority 2000, dated 2010).

Assays:
human bone marrow cells = experiment: Colony assays in cultured human bone marrow cells (CFU-GM, MK, BFU-E, CFU-GEMM); type: cell-based; details: 100 μg/ml synthetic peptide in the presence of EPO
Protocol: Proliferation of megakaryocyte- and erythroid forming cells from human bone marrow and cord blood cells: A sample of bone marrow from an apparently healthy human being was processed by density gradient separation using Histopaque-107 (Sigma Diagnostics) to obtain a purified population of mononuclear cells (MNC). Colony assays were performed in a plating medium containing final concentrations of 0.92% methyl cellulose (4000 centripase powder, Sigma Diagnostic), rehydrated in Iscoves modified Dulbecco's medium containing 36 mM sodium bicarbonate (Gibco), 30% fetal bovine serum (FBS) (Hyclone), 0.292 mg/ml glutamine, 100 units per ml penicillin and 0.01 mg per ml streptomycin (Biological Industries, Beit Haemek). Cord blood from normal births was collected and prepared as mentioned above.
Colony assay medium containing 10^5 MNC per ml was plated in triplicate wells within a 24 well tissue culture plate (Greiner), 0.33 ml per well. The cultures were incubated at 37° C. in 5% CO2, 95% air and 55% relative humidity with or without peptides derived from natural casein or synthetic peptides derived from casein, at the indicated concentrations. Plates were scored after 14 days for colonies containing more than 50 cells. […]

[1] = system: Non-Obese Diabetic (NOD) mice; experiment: Glucosuria in Non-Obese Diabetic (NOD) mice; type: in vivo
Protocol: Juvenile (Type I, IDDM) diabetes in Non-Obese Diabetic (NOD) mice:
Peptides derived from natural casein: NOD mice are a commonly used model for research of autoimmune disease and human Juvenile Diabetes. Six week old female NOD mice received either one or two injections per week of 100 μg of peptides derived from natural casein, for a total of 5 or 10 treatments. Control mice received no treatment. The severity of disease was determined according to glucosuria, which was measured using Combi test sticks [Gross, D. J. et al (1994), Diabetology, 37:1195]. Results were expressed as the percent of glucosuria-free mice in each sample over a 365-day period.
Synthetic peptides derived from casein: In another experiment, 6 week old female NOD mice received one injection per week of 100 μg of Synthetic peptides derived from casein for a total of 5 treatments. Control mice received no treatment. Results were expressed as the number of healthy mice in the various treated groups.

[2] = system: murine bone marrow progenitor cells; experiment: CFU-GEMM colonies from murine bone marrow cells, differential counts; type: cell-based
Protocol: Proliferation of megakaryocytes in multipotential colonies (CFU-GEMM) from murine bone marrow cells: Primary bone marrow cells (1×10^5 per ml) from 8-12 week-old C3H/HeJ […], 95% air, at 37° C. The medium, appropriate for the growth of multipotential colonies (CFU-GEMM), contained 1% BSA (Sigma), 10^−4 M thioglycerol (Sigma), 2.8×10^−4 M human transferrin (TF, Biological industries, Israel), 10% WEHI-CM as a source of IL-3 and 2 units per ml erythropoietin (rhEPO, R & D Systems, Minneapolis). […] They were picked with a micropipette, cytocentrifuged and stained with May-Grunwald-Giemsa for differential counts. At least 700 cells were counted for each preparation.
Proliferation of Dendritic cells in CFU-GEMM: Multipotent (CFU-GEMM) colonies grown from primary bone marrow cells as described for the assay of megakaryocyte proliferation above were collected, stained and counted for dendritic cells. At least 700 cells were counted for each preparation.
Proliferation of Plasma cells in CFU-GEMM: Multipotent (CFU-GEMM) colonies grown from primary bone marrow cells as described for the assay of megakaryocyte proliferation above were collected, stained and counted for plasma cells. At least 700 cells were counted for each preparation.
Proliferation of Macrophage Cells in CFU-GEMM: Multipotent (CFU-GEMM) colonies grown from primary bone marrow cells as described for the assay of megakaryocyte proliferation above were collected, stained and counted for macrophage cells. At least 700 cells were counted for each preparation.
Proliferation of Red Blood Cells in CFU-GEMM: Multipotent (CFU-GEMM) colonies grown from primary bone marrow cells as described for the assay of megakaryocyte proliferation above were collected, stained and counted for red blood cells. At least 700 cells were counted for each preparation.
Proliferation of Polymorphonuclear Cells (PMN) in CFU-GEMM: Multipotent (CFU-GEMM) colonies grown from primary bone marrow cells as described for the assay of megakaryocyte proliferation above were collected, stained and counted for polymorphonuclear cells. […]

[3] = system: murine bone marrow progenitor cells; experiment: CFU-GM colony formation with IL-3 and G-CSF, murine bone marrow; type: cell-based
Protocol: Cells were scored in the macroscopic colonies grown from murine bone marrow cells prepared similarly to the CFU-GEMM colonies previously described. Cells were incubated with hematopoietic factors cytokine (IL-3) and colony stimulating factor (G-CSF), and 25 μg or more of synthetic peptides derived from casein (J), representing amino acids 1-22 of α-S1 casein, or 30-4, representing amino acids 1-6 of α-S1 casein, for 14 days, individually or in combination. The stimulation of colony formation (CFU) is expressed as the number of myeloid colonies in 10^5 plated MNCs.
Synthetic peptides derived from αS1-casein stimulate Granulopoietic (GM) cell proliferation in CFU-GM: As mentioned hereinabove, formation and expansion of CFU-GM (Granulocyte and Macrophage) colonies, and CFU-GEMM (Granulocyte, Erythroid, Macrophage and Megakaryocyte) colonies constitute one of the early events in the differentiation of hematopoietic progenitor cells in the bone marrow.

[4] = system: human bone marrow progenitor cells; experiment: CFU-GM colony formation with IL-3 and G-CSF, human bone marrow; type: cell-based; details: 100 μg/ml, 14 days
Protocol: Cells were scored in the macroscopic colonies grown from human bone marrow cells prepared similarly to the CFU-GEMM colonies previously described. Cells were incubated with hematopoietic factors cytokine (IL-3) and colony stimulating factor (G-CSF), and 25 μg or more of synthetic peptides derived from casein: peptide J, representing amino acids 1-22 of α-S1 casein. Exposure of the human bone marrow progenitor cells to peptides derived from casein was for 14 days. Stimulation of colony formation (CFU) is expressed as the number of myeloid colonies in 10^5 plated MNCs.
A similar effect of synthetic peptides derived from αS1 casein was observed on the proliferation of granulocytes and macrophages from human bone marrow progenitor cells. […] (FIG. 20). Thus, synthetic peptides derived from αS1 casein or combinations thereof are effective in augmenting the effect of granulopoitic factors such as G-CSF on bone marrow hematpoietic progenitor cell differentiation and expansion.

[5] = system: irradiated, bone marrow transplanted mice; experiment: Leukocyte and platelet reconstitution in bone marrow transplant recipient mice; type: in vivo; details: for enhancement of platelet counts over control mice: 3×10^6 cells, 10 days post-transplantation
Protocol: Leukocyte and platelet reconstitution in bone marrow transplant recipient Mice: BALB/c mice were sub-lethally irradiated at a source to skin distance of 70 cm, dosage of 50 cGy per minute, for a total of 600 cGy. The irradiated mice were […] casein, synthetic peptides derived from casein (13-26 amino acids, see Table 3 above), or human serum albumin (controls), following a double-blinded protocol. Leukocyte reconstitution was determined according to cell count in peripheral blood collected at indicated intervals from 6 to 12 days post treatment. Platelet reconstitution was determined by cell count in blood collected from the retro orbital plexus, into EDTA-containing vials, at indicated intervals from day 6 to day 15 post treatment. […]
In a third series of experiments, the mice were irradiated (800 cGy), reconstituted and injected intraperitoneally with 1.0 mg synthetic peptides derived from casein (peptides 3a and 4P, representing the first 6 and 12 amino acids of the N terminus of αS1 casein, respectively—see Table 3 above) daily, on days 4, 5, 6 and 7 post-transplantation. Platelet reconstitution was assayed at 10 and 12 days post-transplantation.
In a fourth series of experiments, F1 mice were irradiated (750 cGy), reconstituted with syngeneic bone marrow, and injected intravenously 24 hours later with 1 mg per mouse of synthetic peptides derived from casein representing amino acids 1-22 of the N terminus of αS1 casein. In addition, 2 (two) groups of mice were treated each with a natural fraction of αS1 casein position 1-23, and a fraction of peptides derived from natural κ-casein, representing amino acid coordinates 106-169 of κ-casein (SEQ ID NO: 27). WBC counts were conducted on days 5, 7, 10 and 12 post-transplantation.

Row | Sequence | proliferation of erythroid cell precursors (BFU-E colonies) vs EPO alone (human bone marrow cells) | Healthy/Total (sugar not detected in urine) ([1]; female NOD mice, 100 μg synthetic peptide once weekly for 5 weeks, evaluated after 25 weeks) | Urine Sugar ([1]; individual healthy NOD mice, after 25 weeks) | effect on Early (E.MK) megakaryocyte formation (in words) ([2]; 25 μg or more, 14 days) | increase in total megakaryocyte proliferation over controls ([2]; synthetic peptide, FIG. 21) | myelocyte formation with G-CSF and IL-3 (in words) ([3]; 25 μg or more, 14 days) | increase in proliferation of granulocytes ([3]; in the presence of G-CSF) | enhancement of granulopoietic stimulating effect of G-CSF (myelocyte formation) [4] | peripheral white blood cell counts, day 10 ([5]; BALB/c, 600 cGy, 1 mg per mouse intraperitoneal, control 1.67) | peripheral white blood cell counts, day 12 ([5]; BALB/c, 600 cGy, 1 mg per mouse intraperitoneal, control 4.64) | white blood cell reconstitution (in words) ([5]; F1 mice, 750 cGy, 1 mg i.v., days 5 and 7 post-reconstitution) | enhancement of platelet counts over control mice ([5]; F1 mice, 750 cGy, 1 mg i.v.) | enhancement of platelet counts over control mice ([5]; F1 mice, 750 cGy, 1 mg i.v., listed as amino acids 1-22 of αS1-casein)
1 | RPKHPIKHQGLPQEVLNE [F, synthetic peptide, N-terminal 18 amino acids of αS1 casein] | one and one-half |  |  |  |  |  |  |  |  |  |  |  | 
2 | RPKHPIKHQGLPQEVLNENLLR [J, synthetic peptide, amino acids 1-22 of α-S1 casein] |  | 3/5 | Negative | dramatic effect | 57% | synergistic increase | 25% | > 50% | 2.74 ×10^6 cells per ml | 5.20 ×10^6 cells per ml | dramatic enhancement | > 25% | 34%
